Test results taken from patent EP1298214A2, “Plant thioesterases” (Calgene LLC, priority 1990, dated 1991).
Read-outs that look alike come from different tables or passages of the source.

Columns and labels:
[1] = biological target: T1, Bay C12-preferring acyl-ACP thioesterase (Umbellularia californica, UniProt Q41635); assay: Substrate hydrolysis (ACP versus CoA) by peak gradient-eluted fraction of the ACP column; assay type: biochemical; parameters: This comprises the source tissue for enzyme extraction; from tissue; host or cells: cotyledons of immature Umbellularia californica seeds; conditions: cpm of ether-extractable product
T1 sequence (Q41635 84-382): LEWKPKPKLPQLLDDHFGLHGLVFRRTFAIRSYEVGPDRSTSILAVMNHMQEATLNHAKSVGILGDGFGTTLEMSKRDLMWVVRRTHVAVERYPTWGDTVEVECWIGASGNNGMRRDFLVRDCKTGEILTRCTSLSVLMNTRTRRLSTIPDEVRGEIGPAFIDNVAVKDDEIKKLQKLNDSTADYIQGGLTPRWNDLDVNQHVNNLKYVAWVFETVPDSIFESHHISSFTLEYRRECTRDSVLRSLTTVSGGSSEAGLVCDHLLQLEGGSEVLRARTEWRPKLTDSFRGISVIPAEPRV
Experimental: (§1) To assay for C12 thioesterase activity the following mixture is incubated at 30° for 30 min: "buffer" comprising 7mM KH2PO4-KOH pH 8, 20% v/v glycerol, 1mM dithiothreitol (DTT), 0.1% v/v Triton X100; sample to be tested for activity in the same or similar buffer as the "extraction buffer" described in Example 2; and 5µl of ^14C-radiolabeled lauroyl-ACP substrate for a total volume of 100µl and final lauroyl-ACP concentration of 0.5µM. Lauroyl-ACP substrate is prepared according to the method of Rock et al (Methods in Enzymology (1981) 72:397-403), using ACP prepared from Escherichia coli by the method of Rock and Cronan (Methods in Enzymology (1981) 71:341-351). The laurate is radiolabeled in the carboxylate group at a specific radioactivity of 50-60µCi/µmol.
(§2) The reaction is stopped by adding 0.5ml cold (0°) 10% v/v acetic acid. […] After settling for a few minutes the upper ether layer is transferred to 5ml scintillation fluid for determination of radioactivity by liquid scintillation spectrometry. Additional ether extractions may be performed to recover remaining traces of the reaction product for more accurate quantitation of the enzyme activity if desired. The amount of ether-extracted radioactivity is a direct measure of C12-preferring acyl-ACP thioesterase activity, provided the amount of enzyme is not sufficient to hydrolyze more than about 25% of the substrate. […]

[2] = test system: material which fails to bind the ACP column (Lauroyl-CoA hydrolysis activity); assay: Substrate hydrolysis (ACP versus CoA) by peak unbound fraction of the ACP column; assay type: biochemical, Umbellularia californica; conditions: Flow-through (nonbinding) fraction; cpm of ether-extractable product
Experimental: as §1, §2

[3] = test system: Bay seeds extractable C12-preferring acyl-ACP thioesterase and lauroyl-CoA hydrolysis activity; assay: Extractable hydrolysis activity at two stages of Bay seed development; assay type: biochemical, Umbellularia californica; conditions: cpm ether-extractable radioactivity
Experimental: as §1
(§3) The reaction is stopped by adding 0.5ml cold (0°) 10% v/v acetic acid. The fatty acid product of the hydrolytic enzyme action is extracted away from the unhydrolyzed substrate by adding 1ml diethyl ether and mixing vigorously. After settling for a few minutes the upper ether layer is transferred to 5ml scintillation fluid for determination of radioactivity by liquid scintillation spectrometry. Additional ether extractions may be performed to recover remaining traces of the reaction product for more accurate quantitation of the enzyme activity if desired. The amount of ether-extracted radioactivity is a direct measure of C12-preferring acyl-ACP thioesterase activity, provided the amount of enzyme is not sufficient to hydrolyze more than about 25% of the substrate. With greater activity than this the relationship between radioactivity in the ether layer and the quantity of enzyme becomes markedly nonlinear. The enzyme preparation must then be diluted appropriately to bring the activity into the linear range of the assay.
Further evidence that the C12-preferring acyl-ACP thioesterase is involved in the biosynthesis of laurate groups that predominate in the Bay seeds comes from a comparison of the extractable activity of the enzyme at two different stages of seed development. As shown in the following table, Table 5, very young seeds, which contain only long-chain fatty acids and insignificant amounts of laurate, yield much less C12-preferring ACP thioesterase than older seeds that have accumulated significant amounts of laurate. Thus it appears that significant activity of this enzyme is only present when the seeds are accumulating laurate. Additionally, there appears to be much less difference in lauroyl-CoA hydrolysis activity, consistent with their being different enzymes as discussed above in Example 5.

[4] = test system: Cuphea C10-preferring acyl-ACP thioesterase; assay: C10 acyl-ACP thioesterase inhibitor studies, material from Example 9A; assay type: biochemical, Cuphea hookeriana; conditions: preliminary inhibitor studies; for sensitivity of the thioesterase to the inhibitor (in words): concentration not given
Experimental: Following the same general procedures as outlined in Example 1, to assay for C10 thioesterase activity, the following mixture is incubated at 30° for 10-60 min: 50µl sample to be tested in the same or similar "extraction buffer" described in Example 9A, and approximately 250pmol of [^14C]-radiolabeled acyl-ACP substrate, (usually decanoyl-ACP is labeled in the carboxylate group to 50-60µCi/µmol) in a total volume of […], for a final decanoyl-ACP concentration of 0.5-5.0µM, typically 5.0µM. The reaction is stopped by adding 0.5ml 10% (v/v) cold (4°) acetic acid and placing the reaction mixture on ice for a few minutes. The fatty acid product of the hydrolytic enzyme action is extracted away from the unhydrolyzed substrate by adding 2ml diethyl ether and mixing vigorously. The ether is transferred to 5ml scintillation fluid for scintillation counting. Additional ether extracts may be performed to recover remaining traces of product for more accurate quantitation of the activity if desired.
An acetone powder is prepared by grinding the seeds to a powder in a mortar and pestle under liquid nitrogen, and then grinding the powder in a mortar and pestle with cold acetone (at approximately -20°). The powder is collected by filtration and rinsed with cold ether to remove remaining traces of acetone. It is then extracted with 10ml of "extraction buffer" per gram of acetone powder weight (this and all subsequent steps at 0-4°) comprising 50mM KH2PO4-KOH pH 7.5, 10mM 2-mercaptoethanol. The homogenate is centrifuged at 11,000xg for 15 min at 4°, and the supernatant fraction used for subsequent purification steps after filtration through two layers of Miracloth (Calbiochem. Inc.; LaJolla, CA).
The supernatant fraction is then subjected to ammonium sulfate fractionation. The 40-60% saturation ammonium sulfate pellet (prepared as described in Example 2) is redissolved in "buffer" comprising 50mM KH2PO4-KOH pH 6.9, 10% (v/v) glycerol, and 10mM 2-mercaptoethanol, and dialyzed against this buffer to remove remaining ammonium sulfate. […]

[5] = biological target: T2, Bay cotyledon C12-preferring acyl-ACP thioesterase (Umbellularia californica, UniProt Q41635); assay: C12-preferring acyl-ACP thioesterase inhibitor studies, Bay ammonium sulfate fraction; assay type: biochemical; conditions: for inhibition at 500 µM / inhibition at 5000 µM: read-out: Percent Inhibition; for sensitivity of the thioesterase to the thiol reagent (in words): 5mM, preliminary inhibitor studies
T2 construct: This comprises the source tissue for enzyme extraction; from tissue; host or cells: cotyledons of immature Umbellularia californica seeds
T2 sequence (Q41635 84-382): T1 sequence (Q41635 84-382)
Experimental: as §1, §3
The crude extract is subjected to ammonium sulfate fractionation as follows. Sufficient solid ammonium sulfate is gradually added with stirring over 30 min to achieve 70% saturation. The preparation is then stirred for a further 30 min. After centrifuging as described above, the pelleted material is resuspended in extraction buffer (2ml/g original tissue weight) and stirred for 10 min until dissolved. Ammonium sulfate is then added as before, but this time only sufficient to achieve 50% saturation. After centrifuging as before, the supernatant fraction is discarded. The pelleted material, which contains the C12-preferring acyl-ACP thioesterase, may be frozen by immersion in liquid nitrogen and then stored at -70° at this stage if desired. The resulting material is referred to as the "ammonium sulfate fraction." Very little of the C12-preferring acyl-ACP thioesterase activity is lost if the pellet is frozen very rapidly.
Table 1 below reports inhibition of Bay cotyledon C12-preferring acyl-ACP thioesterase by thiol reagents observed when an ammonium sulfate fraction (see, Example 2) was assayed (see, Example 1).
After removal of dithiothreitol from an ammonium sulfate fraction preparation by passage through a small. column of G25-50 gel filtration medium (Pharmacia, Piscataway, NJ) the following assay results were observed.

[6] = 0.5mM added to assay, mean of duplicates, ether layer, control without addition 4322
[7] = 5mM added to assay, after removal of dithiothreitol by G25-50 gel filtration, control 3776
[8] = 5mM added to assay, after removal of dithiothreitol by G25-50 gel filtration
[9] = 5mM added to assay, mean of duplicates, ether layer, control without addition 4322

| SMILES | Activity on Substrate [1] [cpm] | Activity on Substrate [2] [cpm] | Hydrolysis / Thioesterase Activity In Assays ([3]; Normal Seeds (2g/cotyledon pair)) | Hydrolysis / Thioesterase Activity In Assays ([3]; Young Seeds (0.5g/cotyledon pair)) | inhibition of the thioesterase (in words) ([4]; 5mM) | Mean Activity [5, 6] [cpm] | inhibition at 500 µM ([5]; 0.5mM added to assay) [%] | Mean Activity [5, 7] [cpm] | inhibition at 5000 µM [5, 8] [%] | Mean Activity [5, 9] [cpm] | inhibition at 5000 µM ([5]; 5mM added to assay) [%] | sensitivity of the thioesterase to the thiol reagent (in words) [5] | sensitivity of the thioesterase to the inhibitor (in words) [4] |
| --- | --- | --- | --- | --- | --- | --- | --- | --- | --- | --- | --- | --- | --- |
| CCCCCCCCCCCC(=O)SCCNC(=O)CCNC(=O)[C@H](O)C(C)(C)COP(=O)(O)OP(=O)(O)OC[C@H]1O[C@@H](n2cnc3c(N)ncnc32)[C@H](O)[C@@H]1OP(=O)(O)O [C12-CoA, lauroyl coenzyme A] | 27 | 10808 | 31,268 cpm | 29,995 cpm |  |  |  |  |  |  |  |  |  |
| CCN1C(=O)C=CC1=O [N-ethylmaleimide] |  |  |  |  | completely inhibited | 4320 | 0 | 269 | 93 | 103 | 98 | almost completely inhibited |  |
| NC(=O)CI [iodoacetamide] |  |  |  |  |  | 4180 | 3 | 3851 | 0 | 4047 | 6 | insensitive | insensitive |
| O=S(=O)(F)Cc1ccccc1 [phenylmethylsulfonyl fluoride] |  |  |  |  |  |  |  |  |  |  |  |  | insensitive |
